The target of assay [1] is T1, butyrylcholinesterase (BChE, EC 3.1.1.8) (Homo sapiens, UniProt P06276).
T1 construct: purchased Sigma (St. Louis, MO, USA)
The experiment in a line: biochemical. On the procedure:
(§1) Inhibition of AChE activity was determined according to the Ellman method, as previously reported. The samples (2 mg/mL) were prepared by mixing tris-HCl buffer (50 mM, pH 8.0), enzyme solution (AChE or BChE), and 5-dithio-bis (2-nitrobenzoic acid) (DTNB) at pH 8.0. The reaction was started by adding acetyl-thiocholine iodide (ATCI) or butyryl-thiocholine chloride (BTCl). The absorbance of the extract was measured at 405 nm for 30 min at 37 °C. Three experiments were performed in triplicate in each test and the values are reported as the mean ± SD. The results were expressed as IC50 (µg/mL, the final concentration of the plate ranged from 0.05 to 25 μg/mL).

Assay [2] concerns the target T2, acetylcholinesterase (AChE, EC 3.1.1.7) (Homo sapiens, UniProt P22303).
T2 construct: purchased Sigma (St. Louis, MO, USA)
The experiment in a line: biochemical. The following applies: 37 °C. Here is the method: as §1

The nature of assay [3]: Ferric-reducing antioxidant power assay (FRAP). The following applies: absorbance at 593 nm after 5 min. Here is the method:
The FRAP test was performed as described previously. A standard curve of the antioxidant Trolox was plotted, then the measurement was performed with 290 µL of extract and its absorbance was measured at 593 nm after 5 min. The results were expressed in mg of Trolox equivalent per g of dry lichen. The experiments were performed in triplicate and the values are expressed as the mean ± SD.

Assay [4] is described as follows: Oxygen radical absorbance capacity (ORAC) assay. Here is the method: The ORAC assay was performed as previously described. Quantification was performed using a standard curve of the antioxidant Trolox, then the measurement was performed using a solution of the Trolox, blank, and 40 µL of extract in different wells of the microplate reader. The results were obtained by constructing the equations (Trolox/samples vs. fluorescence decay curves) and expressed in μmol Trolox equivalents per grams of dry lichen. The tests were performed in triplicate and the results are reported as the mean ± SD.

A short description of a further assay: DPPH scavenging activity. The following applies: bleaching of DPPH at 515 nm after 30 min. On the procedure:
The potential bleaching of the radical DPPH, using a Synergy HTX microplate reader, was determined by mixing 50 µL of extract or standard with 150 µL of DPPH solution; the determinations were made in triplicate by monitoring the bleaching of DPPH at 515 nm after 30 min of reaction. The results are expressed as IC50 in µg of standard or extract per mL. The data are reported as the mean ± SD.
(Loss of DPPH colour is used to gauge radical scavenging.)

A further assay deals with tyrosinase. The note with it: cited from earlier work.
In the next assay the test system is BChE. The note with it: cited from earlier work.
A further assay has as its system AChE. The note with it: cited from earlier work.
The mark [5] stands for this setting: Ellman method, 37 °C, read-out: BChE IC50 (converted).
Where [6] appears, read: Ellman method, read-out: AChE IC50 (converted).

Read-outs that look alike come from different tables or passages of the source. Marks after values point to notes of the source that are not given here.

T1 sequence (P06276 29-602): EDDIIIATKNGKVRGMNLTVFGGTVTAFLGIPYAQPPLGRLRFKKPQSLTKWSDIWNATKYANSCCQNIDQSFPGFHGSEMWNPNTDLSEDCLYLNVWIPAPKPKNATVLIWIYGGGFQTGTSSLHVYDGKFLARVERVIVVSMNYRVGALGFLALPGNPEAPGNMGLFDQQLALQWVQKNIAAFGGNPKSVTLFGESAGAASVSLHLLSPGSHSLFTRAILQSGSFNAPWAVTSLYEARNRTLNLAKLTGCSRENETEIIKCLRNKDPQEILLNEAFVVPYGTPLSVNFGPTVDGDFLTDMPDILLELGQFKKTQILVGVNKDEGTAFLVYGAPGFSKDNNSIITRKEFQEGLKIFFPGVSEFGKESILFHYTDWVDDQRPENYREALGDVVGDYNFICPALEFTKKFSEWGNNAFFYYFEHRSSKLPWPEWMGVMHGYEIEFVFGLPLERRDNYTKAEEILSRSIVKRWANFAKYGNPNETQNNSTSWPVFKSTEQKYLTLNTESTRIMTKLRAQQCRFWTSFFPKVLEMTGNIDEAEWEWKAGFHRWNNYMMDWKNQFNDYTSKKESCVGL
T2 sequence (P22303 32-614, species assumed): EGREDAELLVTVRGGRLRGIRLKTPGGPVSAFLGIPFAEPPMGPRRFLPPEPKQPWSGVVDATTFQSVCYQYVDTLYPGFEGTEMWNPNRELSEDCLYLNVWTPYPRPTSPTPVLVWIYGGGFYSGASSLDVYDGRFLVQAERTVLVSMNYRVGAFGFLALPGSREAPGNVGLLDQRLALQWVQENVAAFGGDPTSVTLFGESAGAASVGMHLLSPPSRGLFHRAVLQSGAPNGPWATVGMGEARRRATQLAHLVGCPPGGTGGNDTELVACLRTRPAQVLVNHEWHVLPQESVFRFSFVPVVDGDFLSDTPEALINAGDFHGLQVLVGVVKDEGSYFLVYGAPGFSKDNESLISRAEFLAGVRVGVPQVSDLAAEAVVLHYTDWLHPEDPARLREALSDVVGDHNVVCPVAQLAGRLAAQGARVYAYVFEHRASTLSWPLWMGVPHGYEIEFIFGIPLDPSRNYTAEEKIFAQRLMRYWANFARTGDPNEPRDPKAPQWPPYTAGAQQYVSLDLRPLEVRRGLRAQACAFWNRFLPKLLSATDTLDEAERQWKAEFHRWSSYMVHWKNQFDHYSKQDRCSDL

`Cc1c(O)cc2c(c1O)C(=O)OC2` [5,7-dihydroxy-6-methylphthalide]: the IC50 (usually the concentration needed to halve the response being measured) in assay [1] (setting [5]) is 108 µM; in assay [2] (setting [6]), 70.5 µM. For the same compound, the FRAP in assay [3] is given as 36.91 ± 0.0 μmol Trolox/g lichen. In assay [4], this compound displayed an ORAC of 373.65 ± 1.05 μmol Trolox/g lichen. Also, the “DPPH antiradical activity (IC50)” value in the assay “DPPH scavenging activity” was 12.52 ± 0.02 µg/mL.
In the case of `CC(=O)C1=C(O)C=C2Oc3c(C(C)=O)c(O)c(C)c(O)c3[C@@]2(C)C1=O` [(+) usnic acid], the tyrosinase inhibition in the assay with tyrosinase (at the dose of 250 μg/mL) was 9.1%.
Turning to `Cc1cc(O)c(C=O)c(O)c1` [Atranol, atranol], the IC50 in assay [1] (setting [5]) was 239 µM; in assay [2] (setting [6]) it was 189 µM. Besides, in assay [3], the FRAP is on record as 29.32 ± 0.0 ^a μmol Trolox/g lichen. The ORAC in assay [4] is on record as 176.28 ± 0.84 μmol Trolox/g lichen. Moreover, the “DPPH antiradical activity (IC50)” value in the assay “DPPH scavenging activity” was 21.04 ± 0.02 µg/mL.
For `Cc1cc(O)c(C=O)c(O)c1C(=O)OCc1cc(O)c(C=O)c(O)c1C(=O)O` [Barbatolic acid, barbatolic acid] the same measures were 61.4 µM, 44.6 µM, 28.10 ± 0.0 ^a μmol Trolox/g lichen, 101.11 ± 0.71 μmol Trolox/g lichen and 62.55 ± 0.01 µg/mL.
For `O=C(O)c1cc(O)c(O)c(O)c1` [Gallic acid, reference compound], the FRAP in assay [3] was 45.5 ± 0.00 μmol Trolox/g lichen. The “DPPH antiradical activity (IC50)” value in “DPPH scavenging activity” is 2.24 ± 0.04 µg/mL.
On to `CC(=O)c1c(O)c(C)c(O)c2c1OC1=CC(=O)C(C(C)=O)C(=O)C12C` (stereo not drawn) [Usnic acid], for which the IC50 in assay [1] is 12.7 µM; in assay [2] (AChE IC50, Ellman method) it was 6.42 µM; with BChE (reported previously), 0.0034 µM; in the assay with AChE (reported previously), 0.00127 µM. This compound registered an FRAP in assay [3] of 22.4 ± 0.00 μmol Trolox/g lichen. For the same compound, the ORAC in assay [4] is given as 122.73 ± 1.0 μmol Trolox/g lichen. Also, in the assay “DPPH scavenging activity”, the “DPPH antiradical activity (IC50)” value is 55.25 ± 0.04 µg/mL.
With `Cc1cc(O)c(C=O)c2c1C(=O)Oc1c(COC(=O)/C=C/C(=O)O)c(O)c(C(=O)O)c(C)c1O2` [fumarprotocetraric acid], in the assay on tyrosinase (at 0.6 mM), the “inhibition of tyrosinase activity” value is listed as 39.8%.
As to `C[C@@H]1O[C@@H](O[C@@H]2C(=O)c3c(O)cc(O)cc3O[C@@H]2c2ccc(O)c(O)c2)[C@H](O)[C@H](O)[C@H]1O` [isoastilbin], in the assay with BChE (at 2.2 µM), the BChE inhibition was 50.10%. Also, the AChE inhibition in the assay on AChE (at 2.2 µM) was 51.70%.
As for `Cc1cc(OC(=O)c2c(C)cc(O)cc2O)cc(O)c1C(=O)O` [lecanoric acid], the “inhibition of tyrosinase activity” value in the assay on tyrosinase is 82.69%.
With `Cc1cc(O)cc(O)c1C(=O)O` [orsellinic acid, 2,4-dihydroxy-6-methylbenzoic acid], the “inhibition of tyrosinase activity” value with tyrosinase is 63.35%.

Values taken from PMC9227586, “UHPLC-MS Metabolomic Fingerprinting, Antioxidant, and Enzyme Inhibition Activities of Himantormia lugubris from Antarctica” (Metabolites, 2022).
